Laboratory results taken from PubChem BioAssay AID248 (DTP/NCI, 2004).
Where “and” joins values, the source holds several entries; their conditions need not be identical. Identical values can stand only once. Inconclusive results and toxic doses are left out.

Test system: L1210 leukemia ip in BDF1 mice, survival T/C
Assay: NCI In Vivo Anticancer Drug Screen. Data for tumor model L1210 Leukemia (intraperitoneal) in B6D2F1 (BDF1) mice
Conditions: endpoint: mean survival time, higher = longer survival
Summary of the method: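 Antitumor effect is assessed in tumor-bearing animals. Survival in the compound arm is compared with a vehicle-dosed control arm and expressed as their quotient.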

[1] = dose: 100.0 mg/kg/injection, schedule: Q04DX002 (ip), vehicle: Klucel (hydroxypropylcellulose) (HPC)
[2] = dose: 200.0 mg/kg/injection, schedule: Q04DX002 (ip), vehicle: Klucel (hydroxypropylcellulose) (HPC)
[3] = dose: 400.0 mg/kg/injection, schedule: Q04DX002 (ip), vehicle: Klucel (hydroxypropylcellulose) (HPC)
[4] = dose: 100.0 mg/kg/injection, schedule: Q04DX003 (ip), vehicle: saline with Tween-80
[5] = dose: 200.0 mg/kg/injection, schedule: Q04DX003 (ip), vehicle: saline with Tween-80
[6] = dose: 400.0 mg/kg/injection, schedule: Q04DX003 (ip), vehicle: saline with Tween-80
[7] = dose: 100.0 mg/kg/injection, schedule: Q04DX003 (ip), vehicle: Klucel (hydroxypropylcellulose) (HPC)
[8] = dose: 200.0 mg/kg/injection, schedule: Q04DX003 (ip), vehicle: Klucel (hydroxypropylcellulose) (HPC)
[9] = dose: 400.0 mg/kg/injection, schedule: Q04DX003 (ip), vehicle: Klucel (hydroxypropylcellulose) (HPC)
[10] = dose: 50.0 mg/kg/injection, schedule: Q01DX009 (ip), vehicle: saline with Tween-80
[11] = dose: 100.0 mg/kg/injection, schedule: Q01DX009 (ip), vehicle: saline with Tween-80
[12] = dose: 200.0 mg/kg/injection, schedule: Q01DX009 (ip), vehicle: saline with Tween-80
[13] = dose: 100.0 mg/kg/injection, schedule: Q01DX009 (ip), vehicle: Klucel (hydroxypropylcellulose) (HPC)
[14] = dose: 200.0 mg/kg/injection, schedule: Q01DX009 (ip), vehicle: Klucel (hydroxypropylcellulose) (HPC)
[15] = dose: 400.0 mg/kg/injection, schedule: Q01DX009 (ip), vehicle: Klucel (hydroxypropylcellulose) (HPC)
[16] = dose: 100.0 mg/kg/injection, schedule: Q01DX001 (ip), vehicle: saline with Tween-80
[17] = dose: 100.0 mg/kg/injection, schedule: Q01DX001 (ip), vehicle: carboxymethylcellulose (CMC)
[18] = dose: 200.0 mg/kg/injection, schedule: Q01DX001 (ip), vehicle: carboxymethylcellulose (CMC)

N#Cc1nc2c(n(O)c1=N)CCC/C2=C\c1ccc(Cl)c(Cl)c1
T/C [1]: 99 % of control | T/C [2]: 89 % of control | T/C [3]: 92 % of control

CCNC(=O)c1ccc(NC(=O)Nc2ccc(C3=NCCN3)cc2)cc1NC(=O)Nc1ccc(C2=NCCN2)cc1
T/C (dose: 37.5 mg/kg/injection, schedule: Q01DX015 (ip), vehicle: water): 198 % of control | T/C (dose: 46.0 mg/kg/injection, schedule: Q01DX001 (ip), vehicle: water): 123 % of control | T/C (dose: 50.0 mg/kg/injection, schedule: Q01DX015 (ip), vehicle: water): 163 % of control | T/C (dose: 62.5 mg/kg/injection, schedule: Q01DX Z (ip), vehicle: water): 116 % of control | T/C (dose: 93.0 mg/kg/injection, schedule: Q01DX001 (ip), vehicle: water): 166 % of control and 189 % of control | T/C (dose: 140.0 mg/kg/injection, schedule: Q01DX001 (ip), vehicle: water): 171 % of control and 176 % of control and 193 % of control

CN(C)c1ccc(N=NC#N)cc1
T/C (dose: 1.56 mg/kg/injection, schedule: Q01DX009 (ip), vehicle: saline): 108 % of control | T/C (dose: 3.12 mg/kg/injection, schedule: Q01DX009 (ip), vehicle: saline): 105 % of control | T/C (dose: 6.25 mg/kg/injection, schedule: Q01DX009 (ip), vehicle: saline with Tween-80): 104 % of control | T/C (dose: 6.25 mg/kg/injection, schedule: Q01DX009 (ip), vehicle: saline): 105 % of control

COC1OC(CCl)C(OC(=O)c2ccccc2)C(OC(=O)c2ccccc2)C1OS(=O)(=O)c1ccc(C)cc1 (stereo not drawn)
T/C (dose: 75.0 mg/kg/injection, schedule: Q04DX002 (ip), vehicle: Klucel (hydroxypropylcellulose) (HPC)): 87 % of control | T/C (dose: 150.0 mg/kg/injection, schedule: Q04DX002 (ip), vehicle: Klucel (hydroxypropylcellulose) (HPC)): 87 % of control | T/C (dose: 300.0 mg/kg/injection, schedule: Q04DX002 (ip), vehicle: Klucel (hydroxypropylcellulose) (HPC)): 97 % of control

CCOC(=O)C(CCC(C)=O)C1=NC(C)(C)CC(C)O1 (stereo not drawn)
T/C (dose: 100.0 mg/kg/injection, schedule: Q01DX009 (ip), vehicle: saline sonified): 102 % of control | T/C (dose: 200.0 mg/kg/injection, schedule: Q01DX009 (ip), vehicle: saline sonified): 109 % of control | T/C (dose: 400.0 mg/kg/injection, schedule: Q01DX009 (ip), vehicle: saline sonified): 98 % of control

O=C(O)C(=O)Nc1ncccc1C(=O)O
T/C [1]: 114 % of control | T/C [2]: 100 % of control | T/C [3]: 103 % of control

CC(C)(c1ccsc1)c1sccc1C(=O)O
T/C [4]: 100 % of control | T/C [5]: 87 % of control | T/C [6]: 87 % of control

CCCCCCCCCCCC(=O)NC(=S)Nc1ccc2ccccc2c1
T/C [7]: 86 % of control | T/C [8]: 86 % of control | T/C [9]: 86 % of control

O=C(N/N=C/c1cccc([N+](=O)[O-])c1)c1ccc(Cl)cc1
T/C [10]: 96 % of control | T/C [11]: 89 % of control | T/C [12]: 89 % of control

CC(=O)Nc1ccc(S(=O)(=O)Nc2cc(C)ccc2C)cc1
T/C [13]: 94 % of control | T/C [14]: 103 % of control | T/C [15]: 103 % of control

O=C(SCO)c1ccccc1
T/C (dose: 100.0 mg/kg/injection, schedule: Q01DX009 (sc), vehicle: olive oil, sesame oil, peanut oil): 108 % of control | T/C (dose: 100.0 mg/kg/injection, schedule: Q04DX003 (sc), vehicle: olive oil, sesame oil, peanut oil): 107 % of control | T/C (dose: 200.0 mg/kg/injection, schedule: Q01DX009 (sc), vehicle: olive oil, sesame oil, peanut oil): 96 % of control | T/C (dose: 200.0 mg/kg/injection, schedule: Q04DX003 (sc), vehicle: olive oil, sesame oil, peanut oil): 96 % of control | T/C (dose: 400.0 mg/kg/injection, schedule: Q01DX009 (sc), vehicle: olive oil, sesame oil, peanut oil): 103 % of control | T/C (dose: 400.0 mg/kg/injection, schedule: Q04DX003 (sc), vehicle: olive oil, sesame oil, peanut oil): 93 % of control

Nc1nc(N)c(N=Nc2ccc(S(=O)(=O)c3ccc(N=Nc4c(N)nc(N)[nH]c4=O)cc3)cc2)c(=O)[nH]1
T/C (dose: 100.0 mg/kg/injection, schedule: Q01DX001 (ip), vehicle: saline): 91 % of control | T/C (dose: 200.0 mg/kg/injection, schedule: Q01DX001 (ip), vehicle: saline): 96 % of control | T/C (dose: 400.0 mg/kg/injection, schedule: Q01DX001 (ip), vehicle: saline): 91 % of control

CC1(C)N=C(N)N=C(N)N1c1ccc(CCC(=O)CCl)cc1
T/C (dose: 25.0 mg/kg/injection, schedule: Q01DX001 (ip), vehicle: saline with Tween-80): 92 % of control | T/C (dose: 50.0 mg/kg/injection, schedule: Q01DX001 (ip), vehicle: saline with Tween-80): 95 % of control | T/C [16]: 95 % of control

CC(CBr)C(=O)O (stereo not drawn)
T/C (dose: 100.0 mg/kg/injection, schedule: Q04DX002 (ip), vehicle: saline with Tween-80): 97 % of control | T/C (dose: 200.0 mg/kg/injection, schedule: Q04DX002 (ip), vehicle: saline with Tween-80): 97 % of control

NOCc1ccsn1
T/C (dose: 100.0 mg/kg/injection, schedule: Q01DX001 (ip), vehicle: other): 105 % of control | T/C (dose: 100.0 mg/kg/injection, schedule: Q01DX009 (ip), vehicle: sodium bicarbonate): 96 % of control | T/C (dose: 100.0 mg/kg/injection, schedule: Q04DX003 (ip), vehicle: other): 102 % of control | T/C (dose: 200.0 mg/kg/injection, schedule: Q01DX001 (ip), vehicle: other): 111 % of control | T/C (dose: 200.0 mg/kg/injection, schedule: Q01DX009 (ip), vehicle: sodium bicarbonate): 98 % of control | T/C (dose: 200.0 mg/kg/injection, schedule: Q04DX003 (ip), vehicle: other): 95 % of control | T/C (dose: 400.0 mg/kg/injection, schedule: Q01DX001 (ip), vehicle: other): 94 % of control

CCOC(=O)c1ccc(NC(=O)Nc2ccccc2C(F)(F)F)cc1
T/C [13]: 88 % of control | T/C [14]: 89 % of control | T/C [15]: 86 % of control

O=C(O)C(c1cc(Cl)co1)N1C(=O)c2ccccc2C1=O (stereo not drawn)
T/C [7]: 103 % of control | T/C [8]: 101 % of control | T/C [9]: 103 % of control

C(CC1CC1)OCOCCC1CC1
T/C [16]: 93 % of control | T/C (dose: 200.0 mg/kg/injection, schedule: Q01DX001 (ip), vehicle: saline with Tween-80): 97 % of control

C[N+](C)(Cc1ccccc1)C1c2ccccc2-c2ccc(Cl)cc21 (stereo not drawn)
T/C (dose: 6.25 mg/kg/injection, schedule: Q04DX002 (ip), vehicle: saline with Tween-80): 91 % of control | T/C (dose: 12.5 mg/kg/injection, schedule: Q04DX002 (ip), vehicle: saline with Tween-80): 94 % of control | T/C (dose: 25.0 mg/kg/injection, schedule: Q04DX002 (ip), vehicle: saline with Tween-80): 88 % of control

CCC1([N+](=O)[O-])COP(=O)(N2CC2)OC1 (stereo not drawn)
T/C [17]: 106 % of control | T/C [18]: 116 % of control

Cc1nc(C)c(C(=O)N/N=C/c2ccc(N(CCCl)CCCl)cc2)s1
T/C (dose: 50.0 mg/kg/injection, schedule: Q01DX001 (ip), vehicle: carboxymethylcellulose (CMC)): 94 % of control | T/C [17]: 94 % of control | T/C [18]: 97 % of control | T/C (dose: 400.0 mg/kg/injection, schedule: Q01DX001 (ip), vehicle: carboxymethylcellulose (CMC)): 94 % of control

N#C/C(=C\C=C\c1ccccc1)C(N)=O
T/C [10]: 102 % of control | T/C [11]: 96 % of control | T/C [4]: 96 % of control | T/C [12]: 101 % of control | T/C [5]: 100 % of control

c1ccc(N/N=C(\Oc2ccccc2)c2ccccc2)cc1
T/C [4]: 93 % of control | T/C [5]: 96 % of control | T/C [6]: 96 % of control

CCOC(=O)c1ccc(NC(=O)Cn2cnc3c(=S)nc[nH]c32)cc1
T/C (dose: 25.0 mg/kg/injection, schedule: Q01DX001 (ip), vehicle: Klucel (hydroxypropylcellulose) (HPC)): 92 % of control | T/C (dose: 50.0 mg/kg/injection, schedule: Q01DX001 (ip), vehicle: Klucel (hydroxypropylcellulose) (HPC)): 106 % of control | T/C (dose: 100.0 mg/kg/injection, schedule: Q01DX001 (ip), vehicle: Klucel (hydroxypropylcellulose) (HPC)): 95 % of control
